Source: article PMC9653409, “Generative deep learning enables the discovery of a potent and selective RIPK1 inhibitor” (Nature Communications, 2022)

What was measured:
Test in all cases: Kinase inhibitory activity profiling of RI-962@10 µM (406 kinases, Eurofins)
Assay type in all cases: biochemical
[1] = target: panel of human kinases (kinase named in endpoint) (Homo sapiens, UniProt P07949); settings: 10 µM; read-out: Activity (%), Ret(h)
Summary of the method: (§1)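 Radiometric filter-binding kinase assays: enzyme preincubated 15 min with compound in 8 mM MOPS pH 7.0, 0.2 mM EDTA, 250 μM peptide substrate, 10 mM magnesium acetate, 10 μM [γ-33P]-ATP. Reaction started with Mg/ATP, run 40 min at room temperature, stopped with phosphoric acid; 33P incorporation read by scintillation counting. Other kinases by similar protocols.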

[2] = target: panel of human kinases (kinase named in endpoint) (Homo sapiens, UniProt P35968); settings: 10 µM; read-out: Activity (%), KDR(h)
Summary of the method: as §1

[3] = target: panel of human kinases (kinase named in endpoint) (Homo sapiens, UniProt Q9UKI8); settings: 10 µM; read-out: Activity (%), TLK1(h)
Summary of the method: as §1

[4] = target: panel of human kinases (kinase named in endpoint) (Homo sapiens, UniProt P16234, V561D); settings: 10 µM; read-out: Activity (%), PDGFRα(V561D)(h)
Summary of the method: as §1

[5] = target: panel of human kinases (kinase named in endpoint) (Homo sapiens, UniProt Q96SB4); settings: 10 µM; read-out: Activity (%), SRPK1(h)
Summary of the method: as §1

[6] = target: panel of human kinases (kinase named in endpoint) (Homo sapiens, UniProt Q15375); settings: 10 µM; read-out: Activity (%), EphA7(h)
Summary of the method: as §1

[7] = target: panel of human kinases (kinase named in endpoint) (Homo sapiens, UniProt O75747); settings: 10 µM; read-out: Activity (%), PI3KC2g(h)
Summary of the method: as §1

[8] = target: panel of human kinases (kinase named in endpoint) (Homo sapiens, UniProt Q9H422); settings: 10 µM; read-out: Activity (%), HIPK3(h)
Summary of the method: as §1

[9] = target: panel of human kinases (kinase named in endpoint) (Homo sapiens, UniProt O00329); settings: 10 µM; read-out: Activity (%), PI3 Kinase (p110d/p85a)(h)
Summary of the method: as §1

[10] = target: panel of human kinases (kinase named in endpoint) (Homo sapiens, UniProt P51957); settings: 10 µM; read-out: Activity (%), NEK4(h)
Summary of the method: as §1

[11] = target: panel of human kinases (kinase named in endpoint) (Homo sapiens, UniProt Q9BYT3); settings: 10 µM; read-out: Activity (%), STK33(h)
Summary of the method: as §1

[12] = target: panel of human kinases (kinase named in endpoint) (Homo sapiens, UniProt P12931, T341M); settings: 10 µM; read-out: Activity (%), Src(T341M)(h)
Summary of the method: as §1

[13] = target: panel of human kinases (kinase named in endpoint) (Homo sapiens, UniProt Q9NZJ5); settings: 10 µM; read-out: Activity (%), PEK(h)
Summary of the method: as §1

[14] = target: panel of human kinases (kinase named in endpoint) (Homo sapiens, UniProt P42338); settings: 10 µM; read-out: Activity (%), PI3 Kinase (p110b/p85a)(h)
Summary of the method: as §1

[15] = target: panel of human kinases (kinase named in endpoint) (Homo sapiens, UniProt O15530); settings: 10 µM; read-out: Activity (%), PDK1(h)
Summary of the method: as §1

[16] = target: panel of human kinases (kinase named in endpoint) (Homo sapiens, UniProt Q96RG2); settings: 10 µM; read-out: Activity (%), PASK(h)
Summary of the method: as §1

[17] = target: panel of human kinases (kinase named in endpoint) (Homo sapiens, UniProt Q8TDC3); settings: 10 µM; read-out: Activity (%), BrSK1(h)
Summary of the method: as §1

[18] = target: panel of human kinases (kinase named in endpoint) (Homo sapiens, UniProt P54756); settings: 10 µM; read-out: Activity (%), EphA5(h)
Summary of the method: as §1

[19] = target: panel of human kinases (kinase named in endpoint) (Homo sapiens, UniProt O15146); settings: 10 µM; read-out: Activity (%), MuSK(h)
Summary of the method: as §1

[20] = target: panel of human kinases (kinase named in endpoint) (Homo sapiens, UniProt Q9H3Y6); settings: 10 µM; read-out: Activity (%), SRMS(h)
Summary of the method: as §1

[21] = target: panel of human kinases (kinase named in endpoint) (Homo sapiens, UniProt O94768); settings: 10 µM; read-out: Activity (%), DRAK2(h)
Summary of the method: as §1

[22] = target: panel of human kinases (kinase named in endpoint) (Homo sapiens, UniProt Q15303); settings: 10 µM; read-out: Activity (%), ErbB4(h)
Summary of the method: as §1

[23] = target: panel of human kinases (kinase named in endpoint) (Homo sapiens, UniProt P05129); settings: 10 µM; read-out: Activity (%), PKCγ(h)
Summary of the method: as §1

[24] = target: panel of human kinases (kinase named in endpoint) (Homo sapiens, UniProt Q13523); settings: 10 µM; read-out: Activity (%), PRP4(h)
Summary of the method: as §1

[25] = target: panel of human kinases (kinase named in endpoint) (Homo sapiens, UniProt Q13237); settings: 10 µM; read-out: Activity (%), PRKG2(h)
Summary of the method: as §1

Sequence of panel of human kinases (kinase named in endpoint) (Homo sapiens, UniProt O75747) (O75747 whole entry): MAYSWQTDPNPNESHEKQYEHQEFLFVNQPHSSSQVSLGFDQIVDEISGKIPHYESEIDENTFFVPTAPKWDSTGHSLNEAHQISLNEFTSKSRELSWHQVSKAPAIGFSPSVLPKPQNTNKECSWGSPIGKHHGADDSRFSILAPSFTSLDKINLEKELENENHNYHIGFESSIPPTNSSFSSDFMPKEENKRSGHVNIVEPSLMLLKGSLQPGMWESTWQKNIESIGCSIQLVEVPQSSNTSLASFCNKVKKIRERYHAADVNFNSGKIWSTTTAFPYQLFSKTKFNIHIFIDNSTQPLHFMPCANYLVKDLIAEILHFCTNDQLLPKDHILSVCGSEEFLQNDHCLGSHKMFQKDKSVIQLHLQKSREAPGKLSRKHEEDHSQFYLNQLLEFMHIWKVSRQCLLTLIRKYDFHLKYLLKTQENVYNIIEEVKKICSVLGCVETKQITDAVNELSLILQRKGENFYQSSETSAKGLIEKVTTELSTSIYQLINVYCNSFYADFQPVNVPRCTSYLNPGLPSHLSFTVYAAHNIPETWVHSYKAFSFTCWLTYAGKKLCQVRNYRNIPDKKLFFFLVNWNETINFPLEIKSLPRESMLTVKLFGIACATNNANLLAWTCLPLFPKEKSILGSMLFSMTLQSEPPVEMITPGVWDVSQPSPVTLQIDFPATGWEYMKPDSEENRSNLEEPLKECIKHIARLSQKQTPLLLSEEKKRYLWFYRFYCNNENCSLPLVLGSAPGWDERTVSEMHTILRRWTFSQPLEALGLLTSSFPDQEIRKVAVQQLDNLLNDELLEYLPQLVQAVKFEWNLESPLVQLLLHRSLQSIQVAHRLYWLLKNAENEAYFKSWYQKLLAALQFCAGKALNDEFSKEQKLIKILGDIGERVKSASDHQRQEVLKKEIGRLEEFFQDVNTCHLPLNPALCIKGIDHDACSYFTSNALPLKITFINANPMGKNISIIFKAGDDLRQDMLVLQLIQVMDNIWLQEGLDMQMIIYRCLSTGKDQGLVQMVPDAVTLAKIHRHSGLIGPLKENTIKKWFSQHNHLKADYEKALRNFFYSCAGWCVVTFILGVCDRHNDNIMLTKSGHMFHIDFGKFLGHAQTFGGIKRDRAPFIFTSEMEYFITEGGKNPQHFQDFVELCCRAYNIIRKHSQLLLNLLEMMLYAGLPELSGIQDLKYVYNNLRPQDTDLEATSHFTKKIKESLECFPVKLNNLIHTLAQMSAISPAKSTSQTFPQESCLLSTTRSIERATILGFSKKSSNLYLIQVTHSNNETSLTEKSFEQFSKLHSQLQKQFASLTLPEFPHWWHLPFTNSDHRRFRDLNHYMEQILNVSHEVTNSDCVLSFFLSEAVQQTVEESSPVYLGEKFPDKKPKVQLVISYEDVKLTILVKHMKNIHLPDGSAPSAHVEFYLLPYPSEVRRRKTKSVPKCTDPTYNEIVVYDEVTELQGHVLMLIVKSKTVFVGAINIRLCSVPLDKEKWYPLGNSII
Sequence of panel of human kinases (kinase named in endpoint) (Homo sapiens, UniProt P07949) (P07949 29-1114): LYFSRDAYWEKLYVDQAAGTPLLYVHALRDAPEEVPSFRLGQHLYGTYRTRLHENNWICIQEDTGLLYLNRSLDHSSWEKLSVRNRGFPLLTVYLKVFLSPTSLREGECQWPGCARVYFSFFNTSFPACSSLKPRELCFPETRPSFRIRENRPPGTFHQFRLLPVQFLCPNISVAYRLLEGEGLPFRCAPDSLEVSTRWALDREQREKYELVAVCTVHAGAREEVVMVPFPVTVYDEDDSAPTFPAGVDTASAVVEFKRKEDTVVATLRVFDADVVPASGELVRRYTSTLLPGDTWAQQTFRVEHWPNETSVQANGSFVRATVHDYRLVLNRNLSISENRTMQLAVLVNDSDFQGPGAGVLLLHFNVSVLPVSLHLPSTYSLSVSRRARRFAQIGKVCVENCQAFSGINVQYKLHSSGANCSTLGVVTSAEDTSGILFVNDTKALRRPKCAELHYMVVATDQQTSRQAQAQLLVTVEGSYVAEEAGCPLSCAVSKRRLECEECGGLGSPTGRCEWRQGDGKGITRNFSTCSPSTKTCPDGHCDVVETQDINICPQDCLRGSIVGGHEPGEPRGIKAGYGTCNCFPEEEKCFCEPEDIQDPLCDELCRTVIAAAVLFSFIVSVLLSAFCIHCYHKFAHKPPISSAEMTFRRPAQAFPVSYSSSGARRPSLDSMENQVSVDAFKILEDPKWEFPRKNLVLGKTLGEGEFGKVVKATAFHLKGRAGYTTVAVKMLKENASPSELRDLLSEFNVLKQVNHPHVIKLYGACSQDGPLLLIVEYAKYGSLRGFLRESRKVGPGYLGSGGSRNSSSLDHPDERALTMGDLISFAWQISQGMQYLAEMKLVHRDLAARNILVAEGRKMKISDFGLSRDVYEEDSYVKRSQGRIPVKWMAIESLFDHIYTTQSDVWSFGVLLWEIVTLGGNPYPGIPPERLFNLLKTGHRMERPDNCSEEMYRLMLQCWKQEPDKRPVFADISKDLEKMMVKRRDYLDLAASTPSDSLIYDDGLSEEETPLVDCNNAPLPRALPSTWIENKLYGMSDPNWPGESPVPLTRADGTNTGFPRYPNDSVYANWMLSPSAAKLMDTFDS
Sequence of panel of human kinases (kinase named in endpoint) (Homo sapiens, UniProt Q9NZJ5) (Q9NZJ5 30-1116): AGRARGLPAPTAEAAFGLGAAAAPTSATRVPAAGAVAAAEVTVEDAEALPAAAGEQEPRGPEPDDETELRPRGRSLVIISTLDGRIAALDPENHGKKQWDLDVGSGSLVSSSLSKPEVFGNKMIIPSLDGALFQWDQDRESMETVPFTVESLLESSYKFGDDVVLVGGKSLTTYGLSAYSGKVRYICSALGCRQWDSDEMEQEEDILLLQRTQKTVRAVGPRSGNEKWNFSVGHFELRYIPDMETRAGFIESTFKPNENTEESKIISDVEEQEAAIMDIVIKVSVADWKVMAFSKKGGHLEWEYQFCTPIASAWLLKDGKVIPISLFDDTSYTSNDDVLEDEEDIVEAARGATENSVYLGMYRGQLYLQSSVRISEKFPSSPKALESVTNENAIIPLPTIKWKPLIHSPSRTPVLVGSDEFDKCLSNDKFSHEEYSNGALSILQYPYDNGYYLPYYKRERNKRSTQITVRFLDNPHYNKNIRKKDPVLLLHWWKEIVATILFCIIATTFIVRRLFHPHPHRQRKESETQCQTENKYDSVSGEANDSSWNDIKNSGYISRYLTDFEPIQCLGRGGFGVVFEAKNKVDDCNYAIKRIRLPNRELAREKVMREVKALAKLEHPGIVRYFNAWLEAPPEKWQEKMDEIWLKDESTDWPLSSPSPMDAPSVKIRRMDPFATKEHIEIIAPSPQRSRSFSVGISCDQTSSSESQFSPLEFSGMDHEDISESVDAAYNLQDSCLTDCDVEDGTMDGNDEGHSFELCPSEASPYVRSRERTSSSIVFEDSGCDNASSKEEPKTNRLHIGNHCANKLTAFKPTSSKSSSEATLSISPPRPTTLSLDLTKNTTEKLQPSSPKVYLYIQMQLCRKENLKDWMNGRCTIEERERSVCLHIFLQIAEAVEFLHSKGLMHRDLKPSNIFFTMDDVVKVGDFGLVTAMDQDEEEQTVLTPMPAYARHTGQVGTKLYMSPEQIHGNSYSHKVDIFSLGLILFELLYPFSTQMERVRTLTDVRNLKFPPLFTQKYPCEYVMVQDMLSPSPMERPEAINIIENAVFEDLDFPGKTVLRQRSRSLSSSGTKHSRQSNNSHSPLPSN
Sequence of panel of human kinases (kinase named in endpoint) (Homo sapiens, UniProt Q9H3Y6) (Q9H3Y6 whole entry): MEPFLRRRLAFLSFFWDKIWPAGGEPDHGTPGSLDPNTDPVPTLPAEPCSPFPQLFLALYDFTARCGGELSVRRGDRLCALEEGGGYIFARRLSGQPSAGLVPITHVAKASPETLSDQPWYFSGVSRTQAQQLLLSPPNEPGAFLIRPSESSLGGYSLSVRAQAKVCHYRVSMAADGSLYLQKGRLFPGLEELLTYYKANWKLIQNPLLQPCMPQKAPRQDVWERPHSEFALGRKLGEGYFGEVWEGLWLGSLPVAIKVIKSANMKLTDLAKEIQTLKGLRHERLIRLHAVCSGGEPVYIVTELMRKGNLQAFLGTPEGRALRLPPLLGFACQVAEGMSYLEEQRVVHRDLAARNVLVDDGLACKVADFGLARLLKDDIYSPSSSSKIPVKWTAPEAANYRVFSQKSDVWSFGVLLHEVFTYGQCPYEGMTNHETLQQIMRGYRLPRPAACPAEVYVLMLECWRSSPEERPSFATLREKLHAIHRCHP

Work on `CC(C)C(=O)Nc1nc2cc(-c3ccc4c(c3)c(C(=O)NC(C)c3ccccc3)cn4C)ccn2n1` (stereo not shown) [RI-962] yielded an activity at 10 µM [1] of 114%, an activity at 10 µM [2] of 92% and an activity at 10 µM [3] of 69%. It also gave an activity at 10 µM [4] of 102%, an activity at 10 µM [5] of 102% and an activity at 10 µM [6] of 100%. The activity at 10 µM [7] was 99%, the activity at 10 µM [8] was 89% and the activity at 10 µM [9] was 64%. It also gave an activity at 10 µM [10] of 104%, an activity at 10 µM [11] of 85% and an activity at 10 µM [12] of 100%. For the same compound, the activity at 10 µM [13] was 94%, the activity at 10 µM [14] was 88% and the activity at 10 µM [15] was 101%. For the same compound, the activity at 10 µM [16] was 71%, the activity at 10 µM [17] was 100% and the activity at 10 µM [18] was 93%. It also gave an activity at 10 µM [19] of 52%, an activity at 10 µM [20] of 101% and an activity at 10 µM [21] of 106%. The activity at 10 µM [22] was 98%, the activity at 10 µM [23] was 93% and the activity at 10 µM [24] was 88%. The activity at 10 µM [25] was 105%.
